Patent publication US20260176284A1, “Compounds with Anti-KRAS Mutated Tumor Activity” (Trasveda Ltd., priority 2022, published 2026)
Values belong to the molecule of their own block, whether it stands above or below them.

Tests used:
[1] = system: KRAS G12D mutated AGS human gastric adenocarcinoma cells; assay: Proliferation inhibition of KRAS G12D mutant AGS cells (CellTiter-Glo, 3 days; IC50 and single-point inhibition rate at 1 μM); type: cell-based; conditions: 72 h, 3 days incubation, max concentration 10 μM
Method: This experiment assessed and validated the proliferation inhibitory activity of some compounds of the present invention against KRAS G12D mutant AGS cells.
Incubate at 37° C., 5% CO2, 95% humidity.
The following materials, instruments, and reagents were used in this experiment: Fetal Bovine Serum FBS (GIBCO, Cat #10099-141); CellTiter-Glo® Luminescent Cell Viability Assay (Promega, Cat #G7572); 96-well clear flat-bottom black-wall plate (Corning®, Cat #3603); SpectraMax multimode microplate reader (MD, 2104-0010A); CO2 Incubator (Thermo Scientific, Model 3100 Series); Biosafety cabinet (Thermo Scientific, Model 1300 Series A2); Inverted microscope (Olympus, CKX41SF); AGS cell line was purchased from Nanjing Kebai Biotechnology Co., Ltd., under the lot number CBP60476.
Cell culture and inoculation: The cells in the logarithmic growth phase were harvested, and cell counting was performed using a platelet counter. The cell viability was detected by Trypan Blue exclusion method to ensure that the cell viability was above 90%. The cell concentration was adjusted. Then, 90 μL of the cell suspension was added to each well of a 96-well plate respectively, and the cells in the 96-well plate were cultured at 37° C. and 5% CO2.
Drug dilution and addition: a) For the preparation of drugs for single-point inhibition rate determination: A 10-fold concentrated drug solution was prepared. 10 μL of the drug solution was added to each well of the 96-well plate inoculated with cells to make the working concentration 1 μM, and three replicate wells were set for each drug concentration; b) For the preparation of drugs for IC50 determination: A 10-fold concentrated drug solution was prepared. 10 μL of the drug solution was added to each well of the 96-well plate inoculated with cells to make the maximum working concentration 10 μM, with a 3.16× dilution and a total of 9 concentrations. Three replicate wells were set for each drug concentration. The cells in the 96-well plate with the added drugs were incubated at 37° C. and 5% CO2 for another 3 days, and then the CTG assay was performed.
(§1) The CTG reagent was thawed, and the cell plate was equilibrated to room temperature for 30 minutes. An equal volume of CTG solution was added to each well, and the plate was shaken on an orbital shaker for 5 minutes to lyse the cells. The cell plate was placed at room temperature for 20 minutes to stabilize the luminescence signal, and then the luminescence value was read.
The data were analyzed using GraphPad Prism 7.0 software. The data were fitted by nonlinear S-curve regression to obtain the dose-response curve, and the IC50 value was calculated accordingly.

[2] = system: KRAS G12D mutated AGS (3D) cells; assay: Proliferation inhibition of KRAS G12D mutated AGS (3D) cells (methylcellulose 3D culture, CTG, 120 h); type: cell-based; conditions: Homo sapiens
Method: The inhibitory effect of representative compounds on the 3D proliferation of the AGS cell line was evaluated by non-adherent, spherical growth in a methylcellulose 3D culture medium.
The following materials, instruments and reagents were used in this experiment: Culture medium RPMI1640 (HyClone, Cat #SH30809.01); Fetal bovine serum FBS (GBICO, Cat #10099-141); CellTiter-Glo® Luminescent Cell Viability Assay (Novozymes Nanjing, Cat #DD1101-04); 96-well Polystyrene microplates (black-wall) (Greiner Bio one, Cat. #655096); Methylcellulose (SIGMA, CAS: 9004-67-5); AGS cells (KC-0405, Kangyuan Bochuang Biotechnology (Beijing) Co., Ltd.); Multifunctional microplate reader (BMG LABTECH, CLARIOstar® Plus); CO2 incubator (Thermo Scientific, Model 3100 Series).
Cell Culture and Inoculation: The cells in the logarithmic growth phase were harvested and cell counting was performed using a platelet counter. The cell viability was detected by Trypan Blue exclusion method to ensure that the cell viability was above 90%. The cell concentration was adjusted. After there were no visible air bubbles in the cell suspension, 180 μL of the cell suspension was added to each well of a 96-well plate respectively, so that the final concentration of methylcellulose was 0.65% and the number of cells was 2400 per well. The cells in the 96-well plate were cultured overnight at 37° C., 5% CO2 and 95% humidity.
The drug dilution and administration were carried out as follows: A 10-fold concentrated drug solution was prepared with the culture medium. 20 μL of the drug solution was added to each well of the 96-well plate inoculated with cells to make the maximum working concentration 10 μM, with a 3.16× dilution, a total of 9 concentrations. Three replicate wells were set for each drug concentration and the DMSO content was 0.1%. The cells in the 96-well plate with the added drugs were continuously cultured at 37° C., 5% CO2 and 95% humidity for 120 h, and then a CTG analysis was performed.
as §1, with “thawed” for “thawed,”
The data were analyzed using GraphPad Prism 7.0 software. The data were fitted by nonlinear S-curve regression to obtain the dose-response curve, and the IC50 value was calculated accordingly. Cell survival rate (%)=(LumTest drug−LumMedium control)/(LumCell control−LumMedium control)×100%.

[3] = system: HPAC cells; assay: 3D proliferation inhibition of KRAS G12D mutated tumor cells, HPAC; type: cell-based, human; conditions: 3D methylcellulose culture, CTG, 120 hours
Text: (§2) This experiment evaluated and verified the proliferation inhibitory activity of the representative compounds of the present invention against the following five strains of KRAS-related tumor cells.
(§3) The following materials, reagents and instruments were used in this experiment: Five strains of cells were all from Nanjing Kebai Biotechnology Co., Ltd. (GP2D, CBP60010; HPAC, CBP60539; AsPC-1, CBP60546; KP-4, CBP60541; Panc 04.03, CBP60683); DMEM (Gibco, 11965092); RPMI-1640 (Gibco, SH30809.01); HPAC complete medium (Cobioer, CBP60539M); Fetal bovine serum FBS (Gibco, 10091-148); Insulin (Gibco, 41400045); Methylcellulose (methylcellulose, Sigma, 9004-67-5); Phosphate-buffered saline DPBS (Comning, 21-031-CVC); CellTiter-Glo® Luminescent Cell Viability Assay (Promega, Cat #G7573); 96-well clear flat-bottom black-wall plate (Corning, 3603); EnVision multilabel plate reader (PerkinElmer #2105); CO2 incubator (Thermo Scientific, Model 3 71 Series).
(§4) A sterilized 1% methylcellulose 3D culture medium was prepared in advance. The cells in the logarithmic growth phase were harvested, and a Countstar automatic cell counter based on the principle of the classic trypan blue staining method was used for cell counting and detecting cell viability to ensure that the cell viability was above 90%. The cell concentrations of GP2D, HPAC, AsPC-1, KP-f4, and Panc 04.03 were adjusted so that the final concentration of methylcellulose was 0.65%, and the mixture was allowed to stand after being well-mixed. After there were no visible air bubbles in the cell suspension, 80 μL of the cell suspension was added to each well of a 96-well plate, with a total of 1000-2000 cells. The cells in the 96-well plate were cultured overnight at 37° C., 5% CO2, and 95% humidity.
(§5) Drug Preparation for IC50 Determination: First, a 10 mM DMSO stock solution of each compound was prepared. For the first dilution, using DMSO as the solvent, each compound was first diluted to 5 mM and then serially diluted 3-fold to obtain 9 concentrations, preparing DMSO solutions of each compound at different concentrations. For the second dilution, a 5-fold diluted solution of each compound was prepared by a 1:100 dilution, using the complete medium as the solvent. […]
(§6) The cells in the 96-well plate with the added drugs were further cultured at 37° C. and 5% CO2 for 120 hours, and then a CTG analysis was performed. […] The cell plate was placed at room temperature for 20 minutes to stabilize the luminescence signal. The luminescence value was read, and the data were collected.
(§7) The data were analyzed using GraphPad Prism 9.0 software. Non-linear S-curve regression was used to fit the data to obtain the dose-response curve, and the IC50 value (nM) was calculated accordingly. […]

[4] = system: KP-4 cells; assay: 3D proliferation inhibition of KRAS G12D mutated tumor cells, KP-4; type: cell-based; conditions: CTG, 120 hours
Text: as §2, §3, §4, §5, §6, §7

[5] = system: KRAS G12D mutated AGS human gastric adenocarcinoma cells; assay: Proliferation inhibition of KRAS G12D mutant AGS cells, another experiment with similar protocol (includes MRTX1133); type: cell-based
Method: In another experiment, using a protocol similar to the one described above, the inhibitory activity of some representative compounds of the present invention against KRAS G12D mutated AGS human gastric adenocarcinoma cells was determined.
The synthesis of compound MRTX1133 was performed according to the method described in J. Med. Chem. 2022, 65, 4, 3123-3133.

[6] = system: GP2D cells; assay: 3D proliferation inhibition of KRAS G12D mutated tumor cells, GP2D; type: cell-based, human; conditions: 3D methylcellulose culture, CTG, 120 hours
Text: as §2, §3, §4, §5, §6, §7

[7] = system: Panc 04.03 cells; assay: 3D proliferation inhibition of KRAS G12D mutated tumor cells, Panc 04.03; type: cell-based; conditions: CTG, 120 hours
Text: as §2, §3, §4, §5, §6, §7

[8] = system: AsPC-1 cells; assay: 3D proliferation inhibition of KRAS G12D mutated tumor cells, AsPC-1; type: cell-based; conditions: Homo sapiens, ASPC1, 3D methylcellulose culture, CTG, 120 hours
Text: as §2, §3
as §4, with “After there were no visible air bubbles in the cell suspension, 80 μL of the cell suspension was added to each well of a 96-well plate, with a total of 1000-2000 cells. The cells in the 96-well plate were cultured overnight at 37° C., 5% CO2, and 95% humidity.” left out
as §6, §7

Structure (SMILES): C#Cc1c(F)ccc2cc(O)cc(-c3c(F)cc4c(N5CC6CCC(C5)N6)nc(OC[C@]5(C)CN(CC)CCC5(F)F)nc4c3F)c12 (atropisomer, axis not shown; (Ra)) [Example 43, (Ra)-4-(4-((1R,5S)-3,8-diazabicyclo[3.2.1]octan-3-yl)-2-(((S)-1-ethyl-4,4-difluoro-3-methylpiperidin-3-yl)methoxy)-6,8-difluoroquinazolin-7-yl)-5-ethynyl-6-fluoronaphthalen-2-ol]
IC50 [1]: 0.037 µM | IC50 [2]: 0.011 µM

IC50 [3]: 0.0041 µM | IC50 ([4]; 3D methylcellulose culture): 0.00474 µM | IC50 [5]: 0.004 µM | IC50 [6]: 0.00039 µM | IC50 ([7]; 3D methylcellulose culture): 0.00134 µM
Structure (SMILES): CN1CC/C(=C\F)[C@](C)(COc2nc(N3C[C@H]4CC[C@@H](C3)N4)c3cc(Cl)c(-c4c(F)ccc5sc(N)c(C#N)c45)c(F)c3n2)C1 (single isomer, unassigned) [Example 324-1]

Structure (SMILES): C#Cc1c(F)ccc2cc(O)cc(-c3c(F)cc4c(N5CC6CCC(C5)N6)nc(OC[C@]5(C)CN(C)CCC5(F)F)nc4c3F)c12 [Example 6-2]
IC50 [1]: 0.032 µM | IC50 [2]: 0.017 µM

Structure (SMILES): C#Cc1c(F)ccc2cc(O)cc(-c3c(F)cc4c(N5CC6CCC(C5)N6)nc(OC[C@]5(C)CN(CC=C)CCC5(F)F)nc4c3F)c12 (atropisomer, axis not shown; (Ra)) [Example 42]
IC50 [1]: 0.15 µM | IC50 [2]: 0.047 µM

IC50 ([3]; Homo sapiens, HPAC): 0.00819 µM | IC50 ([4]; Homo sapiens, KP-4, 3D methylcellulose culture): 0.0426 µM | IC50 [8]: 0.0183 µM | IC50 ([5]; Homo sapiens): 0.028 µM | IC50 ([6]; Homo sapiens, GP2d): 0.003 µM | IC50 ([7]; Homo sapiens, Panc 04.03, 3D methylcellulose culture): 0.0206 µM
Structure (SMILES): C#Cc1c(F)ccc2cc(O)cc(-c3ncc4c(N5CC6CCC(C5)N6)nc(OC[C@@]56CCCN5C[C@H](F)C6)nc4c3F)c12 [MRTX1133, reference compound]

Structure (SMILES): C#Cc1c(F)ccc2cc(O)cc(-c3c(F)cc4c(N5CC6CCC(C5)N6)nc(OC[C@]5(C)CN(CCF)CCC5(F)F)nc4c3F)c12 (atropisomer, axis not shown; (Ra)) [Example 44, (Ra)-4-(4-((1R,5S)-3,8-diazabicyclo[3.2.1]octan-3-yl)-2-(((S)-4,4-difluoro-1-(2-fluoroethyl)-3-methylpiperidin-3-yl)methoxy)-6,8-difluoroquinazolin-7-yl)-5-ethynyl-6-fluoronaphthalen-2-ol]
IC50 [1]: 0.217 µM | IC50 [2]: 0.118 µM
